The values that follow come from patent US9593110B2, “Neprilysin inhibitors” (Theravence Biopharma R&D IP, LLC, priority 2014, dated 2017).

The Ki is the dissociation constant of the complex between target and ligand, obtained from inhibition or displacement.

In the test the target is human NEP (Homo sapiens (Human), UniProt P08473). Description: In vitro enzyme inhibition assay at human NEP. As to conditions: recombinant human NEP, fluorogenic peptide substrate, 37° C.; for Ki: pKi.
Chain of human NEP (P08473 52-750): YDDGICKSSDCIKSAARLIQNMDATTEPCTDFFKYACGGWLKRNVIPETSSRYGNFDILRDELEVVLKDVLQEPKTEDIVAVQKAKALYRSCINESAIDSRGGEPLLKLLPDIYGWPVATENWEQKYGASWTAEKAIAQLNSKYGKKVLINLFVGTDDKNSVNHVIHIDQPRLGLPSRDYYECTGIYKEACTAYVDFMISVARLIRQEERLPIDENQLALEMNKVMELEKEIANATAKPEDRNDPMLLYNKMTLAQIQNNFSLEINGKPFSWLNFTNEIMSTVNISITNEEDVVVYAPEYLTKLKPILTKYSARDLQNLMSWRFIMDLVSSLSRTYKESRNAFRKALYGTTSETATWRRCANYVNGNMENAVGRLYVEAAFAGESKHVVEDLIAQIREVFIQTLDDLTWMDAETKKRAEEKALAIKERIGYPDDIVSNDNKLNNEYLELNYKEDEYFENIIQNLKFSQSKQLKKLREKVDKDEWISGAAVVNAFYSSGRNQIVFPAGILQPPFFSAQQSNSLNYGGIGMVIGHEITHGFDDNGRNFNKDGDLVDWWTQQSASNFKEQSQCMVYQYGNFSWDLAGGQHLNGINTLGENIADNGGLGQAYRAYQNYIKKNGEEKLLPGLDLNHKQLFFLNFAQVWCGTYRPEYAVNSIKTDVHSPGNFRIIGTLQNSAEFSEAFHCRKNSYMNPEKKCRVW

Experimental: The inhibitory activities of compounds at human and rat neprilysin (EC 3.4.24.11; NEP) and human angiotensin converting enzyme (ACE) were determined using in vitro assays as described below.
The assays were performed in 384-well white opaque plates at 37° C. using the fluorogenic peptide substrates at a concentration of 10 μM in Assay Buffer (NEP: 50 mM HEPES, pH 7.5, 100 mM NaCl, 0.01% polyethylene glycol sorbitan monolaurate (Tween-20), 10 μM ZnSO4; ACE: 50 mM HEPES, pH 7.5, 100 mM NaCl, 0.01% Tween-20, 1 μM ZnSO4).
Test compounds were assayed over the range of concentrations from 10 μM to 20 pM. Test compounds were added to the enzymes and incubated for 30 minute at 37° C. prior to initiating the reaction by the addition of substrate.
Plates were read on a fluorometer with excitation and emission wavelengths set to 320 nm and 405 nm, respectively Inhibition constants were obtained by nonlinear regression of the data using the equation (GraphPad Software, Inc., San Diego, Calif.): v=v0/[1+(I/K′)] where v is the reaction rate, v0 is the uninhibited reaction rate, I is the inhibitor concentration and K′ is the apparent inhibition constant.

As for `O=C(N[C@H](Cc1ccc(-c2cc(Cl)ccc2F)cc1)C[C@@H](Cn1ccnn1)C(=O)O)c1cnn[nH]1` [Example 61a, (2S,4S)-5-(5′-Chloro-2′-fluorobiphenyl-4-yl)-4-[(3H-[1,2,3]triazole-4-carbonyl)amino]-2-[1,2,3]triazol-1-ylmethylpentanoic Acid], the inhibition constant Ki was not above 1 nM.
Still for that read-out and setting: next, `O=C(N[C@H](Cc1ccc(-c2cc(Cl)ccc2F)cc1)C[C@@H](Cn1nccn1)C(=O)O)c1cnn[nH]1` [Example 61b, (2S,4S)-5-(5′-Chloro-2′-fluorobiphenyl-4-yl)-4-[(3H-[1,2,3]triazole-4-carbonyl)amino]-2-[1,2,3]triazol-2-ylmethylpentanoic Acid]: not above 1 nM.
As for `O=C(N[C@H](Cc1ccc(-c2cc(Cl)ccc2F)cc1)C[C@@H](Cn1ccnc1)C(=O)O)c1cnn[nH]1` [Example 62, (2S,4S)-5-(5′-Chloro-2′-fluorobiphenyl-4-yl)-2-imidazol-1-ylmethyl-4-[(3H-[1,2,3]triazole-4-carbonyl)amino]pentanoic Acid], the pKi entry is on record as “≧9.0”.
As to `O=C(N[C@H](Cc1ccc(-c2cc(Cl)ccc2F)cc1)C[C@@H](Cc1nnn[nH]1)C(=O)O)c1cnn[nH]1` [Example 63, (2S,4S)-5-(5′-Chloro-2′-fluorobiphenyl-4-yl)-2-(1H-tetrazol-5-ylmethyl)-4-[(3H-[1,2,3]triazole-4-carbonyl)amino]pentanoic Acid], the Ki was 1.26 to 3.16 nM.
For the molecule `CN(C)CC(=O)N[C@H](C[C@@H](Cc1ccc(-c2cc(Cl)ccc2F)cc1)NC(=O)c1cnn[nH]1)C(=O)O` [Example 64, (2R,4R)-5-(5′-Chloro-2′-fluorobiphenyl-4-yl)-2-(2-dimethylaminoacetylamino)-4-[(3H-[1,2,3]triazole-4-carbonyl)amino]pentanoic Acid], the inhibition constant Ki was in the range of 1.26 to 3.16 nM.
On the same count and under the same terms, to `CNCC(=O)N[C@H](C[C@@H](Cc1ccc(-c2cc(Cl)ccc2F)cc1)NC(=O)c1cnn[nH]1)C(=O)O` [Example 65, (2R,4R)-5-(5′-Chloro-2′-fluorobiphenyl-4-yl)-2-(2-methylaminoacetylamino)-4-[(3H-[1,2,3]triazole-4-carbonyl)amino]pentanoic Acid] belongs 1.26 to 3.16 nM.
Regarding `O=C(N[C@H](Cc1ccc(-c2cc(Cl)ccc2F)cc1)C[C@@H](Cc1noc(=O)[nH]1)C(=O)O)c1cnn[nH]1` [Example 66, (2S,4S)-5-(5′-Chloro-2′-fluorobiphenyl-4-yl)-2-(5-oxo-4,5-dihydro-[1,2,4]oxadiazol-3-ylmethyl)-4-[(3H-[1,2,3]triazole-4-carbonyl)amino]pentanoic Acid], the inhibition constant (Ki) fell in the range of 1.26 to 3.16 nM.
For the molecule `COC(=O)NCC(=O)N[C@H](C[C@@H](Cc1ccc(-c2cc(Cl)ccc2F)cc1)NC(=O)c1c[nH]nn1)C(=O)O` [Example 67, (2R,4R)-5-(5′-Chloro-2′-fluorobiphenyl-4-yl)-2-(2-methoxycarbonylaminoacetylamino)-4-[(1H-[1,2,3]triazole-4-carbonyl)amino]pentanoic Acid], the pKi entry is “≧9.0”.
For the molecule `NCCCC(=O)NC[C@H](C[C@@H](Cc1ccc(-c2cc(Cl)ccc2F)cc1)NC(=O)c1cnn[nH]1)C(=O)O` [Example 68, (2S,4S)-2-[(4-Aminobutyrylamino)methyl]-5-(5′-chloro-2′-fluorobiphenyl-4-yl)-4-[(3H-[1,2,3]triazole-4-carbonyl)amino]pentanoic acid], the inhibition constant (Ki) lay within 3.16 to 10 nM.
In the case of `O=C(N[C@H](Cc1ccc(-c2cc(Cl)ccc2F)cc1)C[C@@H](CN1CCOCC1)C(=O)O)c1c[nH]nn1` [Example 69a, (2S,4S)-5-(5′-Chloro-2′-fluorobiphenyl-4-yl)-2-morpholin-4-ylmethyl-4-[(1H-[1,2,3]triazole-4-carbonyl)amino]pentanoic Acid], the Ki is 1.26 to 3.16 nM.
As to `NCCCCCC(=O)N[C@H](C[C@@H](Cc1ccc(-c2cc(Cl)ccc2F)cc1)NC(=O)c1c[nH]nn1)C(=O)O` [Example 70, (2R,4R)-2-(6-Aminohexanoylamino)-5-(5′-chloro-2′-fluorobiphenyl-4-yl)-4-[(1H-[1,2,3]triazole-4-carbonyl)amino]pentanoic Acid], the pKi entry is reported as “≧9.0”.
